What all share (format): in vivo, C57BL/6N male mice
The test system of one experiment is COX-2, EGFR, INOS genes. Description: qPCR of COX-2, EGFR and INOS genes in tumor tissue of colorectal cancer mice. As for the experimental part: (§1) The whole colon of a mouse was divided into two major parts, namely the tumor segment and the white-side segment. 20 mg of tumor tissue and white-side tissue were taken from the same mouse for total RNA extraction and reverse transcription reaction. The specific operation was the same as above.
(§2) The experimental data were plotted using GraphPad Prism9.0, and statistical analysis was conducted using one-way ANOVA, where “ns” indicated no significant difference, “*” indicated p<0.05, “**” indicated p<0.01, “***” indicated p<0.001, and “****” indicated p<0.0001. The relative expression of mRNA in qPCR was calculated using the […] method.
In general terms: In qPCR the cycle at which signal appears reflects the starting amount.

In a further experiment the test system is intestinal flora. Description: 16S rRNA sequencing of intestinal flora in colorectal cancer mice. The settings on record: colorectal cancer mice (FIG. 16D). As for the experimental part: The mouse feces was collected using a 1.5 mL EP tube, immediately frozen in liquid nitrogen, and stored at −80° C. before sample delivery. 6 samples of mouse colon contents were collected from each group and placed in dry ice for 16S rRNA sequencing by Qingdao Biomarker Technologies Co., LTD.

The subject of the next experiment is TNF-α, IL-6, IL-1β mRNA. Nature of the experiment: qPCR of inflammatory factors in tumor tissue of colorectal cancer mice. As for the experimental part:
as §1, §2

The test system of experiment [1] is colitis-associated colorectal cancer model in mice. Nature of the experiment: AOM/DSS-induced colitis-associated colorectal cancer mouse model (body weight, colon, tumors, serum IL-6). The procedure: In this experiment, a mouse colitis-associated colorectal cancer model was established using AOM/DSS, and a specific process is shown in FIG. 2. C57BL/6N male mice were placed in an SPF barrier environment for adaptive feeding for one week, while mice with abnormal weight were eliminated. The remaining mice were randomly divided into […], namely: blank group, 3% DSS+normal saline group (a model group), 3% DSS+300 mg/kg mesalazine (a positive drug group), 3% DSS+600 mg/kg hulless barley grass-derived polyphenol crude extract (Example 1), 3% DSS+400 mg/kg hulless barley grass-derived polysaccharide crude extract (Comparative Example 1), 3% DSS+200 mg/kg hulless barley grass-derived lipid crude extract (Comparative Example 2), and 3% DSS+600 mg/kg hulless barley seed-derived polyphenol crude extract (Comparative Example 3). There were ten mice in each group. In the second week, the mice in the model group, positive group, grass polyphenol group, polysaccharide group, lipid group, and seed polyphenol group were intraperitoneally injected with 10 mg/kg AOM. From the third week, the mice drank 3% DSS aqueous solution for one week, and then the DSS aqueous solution was replaced with sterile water for the mice to drink. The experiment ended after six weeks. During the entire experiment, each group of mice was gavaged with medication according to the grouping. The conditions of mice were observed and their weights were recorded each time they were gavaged. At the end of the experiment, all mice were anesthetized, and the colon (from the anus to the cecum), liver, kidney, and spleen tissues of the mice were collected and weighed after dissection. The intestinal contents were gently rinsed with PBS and the length of the mouse colon tissue was measured. The colon was longitudinally cut open with ophthalmic scissors, and the number and size of tumors in the mouse colon were measured with a vernier caliper and recorded. A part of the whole colon of the mouse was taken for the subsequent preparation of colon Swiss rolls, fixated in 4% paraformaldehyde fixative for histopathological analysis, and the remaining tissues were quick-frozen in liquid nitrogen and then transferred to a −80° C. refrigerator for further measurement of qPCR and other experiments.

Experiment [2] relates to colon tissue of colorectal cancer mice. Description: Colon Swiss roll H&E histopathology of colorectal cancer mice. The settings on record: AOM/DSS colorectal cancer mice, compared with the model group (FIG. 13). The procedure: The colon was taken out from the fixative in a fume hood, one end of the colon was gently clamped with ophthalmic forceps, and the entire colon was gently rolled around the forceps in one direction. Be careful not to do it too tight or too loose, otherwise the intestinal villi might fall over or become loose. The Swiss roll was prepared by piercing the edge of the rolled intestine with a fine needle to complete the fixation, and the ophthalmic forceps were removed in the center of the colon. The Swiss roll was placed in an embedding frame and labeled, followed by dehydration and wax immersion, paraffin embedding, paraffin sectioning, dewaxing to water, hematoxylin staining, eosin staining, dehydration and sealing, microscopic examination, and graphic analysis.

The test system of experiment [3] is acute ulcerative colitis model in mice. Nature of the experiment: DSS-induced acute ulcerative colitis mouse model (body weight, DAI, colon length, survival). The note with it: 3% DSS colitis mice, gavage; model group 2.93, blank 0 (FIG. 3C).
Source text: In this experiment, DSS was used to construct an acute ulcerative colitis model in mice, and a specific process is shown in FIG. 1. C57BL/6N male mice were placed in an SPF barrier environment for adaptive feeding for one week, while mice with abnormal weight were eliminated. […] From the first day, mice in all groups except the blank group were given drugs by gavage throughout the whole process; from the fourth day, mice in all groups (except the blank group) drank 3% DSS aqueous solution freely for one week; from the tenth day, 3% DSS was replaced with sterile drinking water for experimental mice, and the mice were allowed to recover naturally for one week; on the eighteenth day, the experiment ended and samples were collected from the mice. After the mice were anesthetized, blood was collected from their orbits. After blood collection, the liver, kidney, and spleen tissues of the mice were collected and weighed. The colon tissue from the cecum to the anus of the mice was collected and its length was measured. A 1 cm to 2 cm colon tissue from the anus was fixated in 4% paraformaldehyde solution for histopathological staining. […] During the mouse modeling period, the mouse status was observed daily and the mouse weight was recorded.
The fresh mouse feces were collected and the fecal occult blood was determined according to the instructions of the fecal occult blood assay kit. […]
[4] abbreviates: AOM/DSS colorectal cancer mice, compared with the model group (FIG. 12C).

On to `Nc1ccc(O)c(C(=O)O)c1` [mesalazine], for which the “expression level of COX-2 gene” value with COX-2, EGFR, INOS genes (compared with the model group (FIG. 15A)) is “significantly downregulated”. Moreover, the “expression level of EGFR gene” value in the experiment with COX-2, EGFR, INOS genes (compared with the model group (FIG. 15B)) is on record as “significantly downregulated”. Also, the “expression level of INOS gene” value in the experiment on COX-2, EGFR, INOS genes (compared with the model group (FIG. 15C)) is recorded as “significantly downregulated”. In addition, the “richness and uniformity of the intestinal flora (rank abundance curve)” value with intestinal flora was “closest to those of the blank group”. Moreover, the “relative expression level of TNF-α mRNA” value with TNF-α, IL-6, IL-1β mRNA (compared with the model group (FIG. 14A)) is “significantly reduced”. Moreover, in the experiment with TNF-α, IL-6, IL-1β mRNA (compared with the model group (FIG. 14B)), the “relative expression level of IL-6 mRNA” value is reported as “significantly reduced”. The “relative expression level of IL-1β mRNA” value in the experiment on TNF-α, IL-6, IL-1β mRNA (compared with the model group (FIG. 14C)) is on record as “significantly reduced”. In experiment [1] (AOM/DSS colorectal cancer mice (FIG. 11C)), the “colon weight per unit length (increase in tumor weight caused by modeling)” value is “effectively reduced the increase in tumor weight caused by modeling”. In experiment [1] (setting [4]), the “proportion of tumors above 3 mm” value is reported as “decreased”, the “proportion of tumors less than 2 mm” value is “increased significantly” and the “proportion of tumors of 2 mm to 3 mm” value was “decreased”. Also, the “body weight when the experiment was over” value in experiment [1] (AOM/DSS colorectal cancer mice, last day (FIG. 10B)) was “significant decrease”. Also, the “colon thickness and tumors in pathological sections (H&E)” value in experiment [2] is “showed a similar trend”. Moreover, the “disease activity index (DAI)” value in experiment [3] is on record as 2.33.

For the origin of these results see patent publication US20260014225A1, “USE OF HULLESS BARLEY GRASS EXTRACT IN CONTROLLING COLORECTAL CANCER AND ULCERATIVE COLITIS” (Shanghai Jiao Tong University, priority 2024, published 2026).
